Data from article PMC7475166 (Journal of medicinal chemistry, 2015).

Assays:
[1] = biological target: Bcr-Abl^T315I in Ba/F3 cells (Homo sapiens, UniProt P00519+P11274, T315I); conditions: 500 nM, 3 h, immunoblot
[2] = biological target: Bcr-Abl^WT in Ba/F3 cells (Homo sapiens, UniProt P00519+P11274); conditions: 500 nM, 3 h, immunoblot
[3] = biological target: Blk (Homo sapiens, UniProt P51451); assay: SelectScreen Kinase Profiling; format: biochemical
[4] = tested on: parental Ba/F3 cells that do not express Bcr-Abl; assay: Counterscreen against parental Ba/F3 cells; format: cell-based
[5] = biological target: T1, MUSK (Homo sapiens, UniProt O15146); assay: SelectScreen Kinase Profiling; format: biochemical
T1 sequence (O15146 24-869): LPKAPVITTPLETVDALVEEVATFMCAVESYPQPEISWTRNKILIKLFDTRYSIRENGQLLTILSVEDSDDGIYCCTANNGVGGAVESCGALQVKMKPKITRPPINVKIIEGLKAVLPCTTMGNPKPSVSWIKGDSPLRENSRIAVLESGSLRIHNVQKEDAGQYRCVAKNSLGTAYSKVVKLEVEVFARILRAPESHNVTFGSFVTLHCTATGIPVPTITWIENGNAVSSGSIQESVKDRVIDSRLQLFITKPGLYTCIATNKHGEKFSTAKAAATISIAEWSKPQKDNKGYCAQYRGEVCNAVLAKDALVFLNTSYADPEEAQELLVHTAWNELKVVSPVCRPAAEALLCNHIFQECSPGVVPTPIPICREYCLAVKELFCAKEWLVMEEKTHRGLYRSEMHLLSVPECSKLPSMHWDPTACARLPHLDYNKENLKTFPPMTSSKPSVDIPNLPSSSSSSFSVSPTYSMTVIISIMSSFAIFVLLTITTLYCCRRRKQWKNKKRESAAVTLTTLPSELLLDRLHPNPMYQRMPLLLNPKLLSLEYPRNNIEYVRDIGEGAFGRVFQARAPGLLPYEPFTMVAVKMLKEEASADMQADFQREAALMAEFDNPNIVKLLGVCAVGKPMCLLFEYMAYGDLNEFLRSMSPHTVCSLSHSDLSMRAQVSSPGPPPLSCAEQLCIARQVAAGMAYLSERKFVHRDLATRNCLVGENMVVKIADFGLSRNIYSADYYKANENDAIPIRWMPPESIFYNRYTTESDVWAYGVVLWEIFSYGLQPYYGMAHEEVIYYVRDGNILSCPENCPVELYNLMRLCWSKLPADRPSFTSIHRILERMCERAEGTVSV

[6] = biological target: Yes1 (Homo sapiens, UniProt P07947); assay: SelectScreen Kinase Profiling; format: biochemical; conditions: read-out: inhibition of Yes1
Sequence of Yes1 (P07947 whole entry): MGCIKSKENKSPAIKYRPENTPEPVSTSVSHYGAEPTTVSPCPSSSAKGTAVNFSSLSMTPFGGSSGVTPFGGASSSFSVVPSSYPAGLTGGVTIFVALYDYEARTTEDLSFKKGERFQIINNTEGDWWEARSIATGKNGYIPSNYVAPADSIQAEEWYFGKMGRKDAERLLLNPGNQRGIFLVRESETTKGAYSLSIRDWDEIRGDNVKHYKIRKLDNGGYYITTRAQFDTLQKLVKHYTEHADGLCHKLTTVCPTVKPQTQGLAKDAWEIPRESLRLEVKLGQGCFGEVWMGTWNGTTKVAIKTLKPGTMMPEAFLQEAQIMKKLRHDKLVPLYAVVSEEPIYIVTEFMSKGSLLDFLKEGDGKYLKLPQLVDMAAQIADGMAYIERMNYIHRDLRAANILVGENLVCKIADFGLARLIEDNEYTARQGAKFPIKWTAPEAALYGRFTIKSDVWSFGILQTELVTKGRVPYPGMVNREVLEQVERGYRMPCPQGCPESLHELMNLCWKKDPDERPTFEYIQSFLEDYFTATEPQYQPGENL

[7] = biological target: CSF1R (Homo sapiens, UniProt P07333); assay: SelectScreen Kinase Profiling; format: biochemical; conditions: read-out: inhibition of CSF1R
Sequence of CSF1R (P07333 20-972): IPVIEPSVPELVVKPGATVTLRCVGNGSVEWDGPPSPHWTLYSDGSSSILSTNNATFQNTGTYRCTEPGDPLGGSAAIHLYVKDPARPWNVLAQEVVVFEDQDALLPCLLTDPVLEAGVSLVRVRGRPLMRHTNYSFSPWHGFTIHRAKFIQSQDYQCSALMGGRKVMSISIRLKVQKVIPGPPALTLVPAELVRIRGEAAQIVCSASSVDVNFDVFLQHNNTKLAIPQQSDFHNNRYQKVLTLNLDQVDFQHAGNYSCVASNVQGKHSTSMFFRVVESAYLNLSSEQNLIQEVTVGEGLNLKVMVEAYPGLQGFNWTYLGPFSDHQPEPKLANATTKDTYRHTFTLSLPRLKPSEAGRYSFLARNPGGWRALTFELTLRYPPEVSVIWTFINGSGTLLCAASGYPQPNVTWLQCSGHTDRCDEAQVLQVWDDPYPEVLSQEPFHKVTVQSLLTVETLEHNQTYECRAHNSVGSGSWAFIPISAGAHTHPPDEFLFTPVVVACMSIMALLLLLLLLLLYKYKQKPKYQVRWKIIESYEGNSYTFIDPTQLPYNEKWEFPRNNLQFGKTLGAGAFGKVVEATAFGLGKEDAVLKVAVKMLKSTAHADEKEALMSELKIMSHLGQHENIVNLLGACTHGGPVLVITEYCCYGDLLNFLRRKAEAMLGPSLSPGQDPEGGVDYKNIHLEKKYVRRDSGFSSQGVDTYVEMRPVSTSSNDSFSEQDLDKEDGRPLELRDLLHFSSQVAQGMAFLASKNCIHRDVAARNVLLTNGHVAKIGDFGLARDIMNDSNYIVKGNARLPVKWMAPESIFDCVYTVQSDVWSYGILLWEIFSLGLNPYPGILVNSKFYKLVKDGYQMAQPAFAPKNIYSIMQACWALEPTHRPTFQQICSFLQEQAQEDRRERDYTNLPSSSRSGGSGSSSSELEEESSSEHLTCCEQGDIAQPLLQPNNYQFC

[8] = biological target: TrkA (Homo sapiens, UniProt P04629); assay: SelectScreen Kinase Profiling; format: biochemical
Sequence of TrkA (P04629 33-796): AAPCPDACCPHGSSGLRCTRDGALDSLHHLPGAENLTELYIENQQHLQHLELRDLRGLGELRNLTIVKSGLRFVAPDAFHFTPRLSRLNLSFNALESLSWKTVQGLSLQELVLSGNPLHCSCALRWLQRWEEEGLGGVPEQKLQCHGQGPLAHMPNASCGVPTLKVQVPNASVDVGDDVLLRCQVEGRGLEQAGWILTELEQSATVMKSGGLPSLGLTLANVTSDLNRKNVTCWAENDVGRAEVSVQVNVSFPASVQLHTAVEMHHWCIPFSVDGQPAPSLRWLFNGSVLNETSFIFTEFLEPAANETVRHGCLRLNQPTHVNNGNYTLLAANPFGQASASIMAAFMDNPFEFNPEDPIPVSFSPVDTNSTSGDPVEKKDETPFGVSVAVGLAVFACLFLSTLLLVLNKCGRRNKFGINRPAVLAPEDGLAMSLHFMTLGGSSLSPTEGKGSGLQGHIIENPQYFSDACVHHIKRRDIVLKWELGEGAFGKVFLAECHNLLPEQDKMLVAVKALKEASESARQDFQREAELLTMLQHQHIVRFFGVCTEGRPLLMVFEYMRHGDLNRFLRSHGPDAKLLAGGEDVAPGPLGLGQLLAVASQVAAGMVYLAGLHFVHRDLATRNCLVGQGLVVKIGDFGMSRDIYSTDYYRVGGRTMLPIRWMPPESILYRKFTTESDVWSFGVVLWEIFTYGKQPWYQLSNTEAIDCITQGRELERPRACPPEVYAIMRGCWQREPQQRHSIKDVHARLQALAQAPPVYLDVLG

[9] = tested on: diverse set of 66 kinases; assay: SelectScreen Kinase Profiling, whole panel; format: biochemical; conditions: 50 nM

Sequence of Blk (P51451 whole entry): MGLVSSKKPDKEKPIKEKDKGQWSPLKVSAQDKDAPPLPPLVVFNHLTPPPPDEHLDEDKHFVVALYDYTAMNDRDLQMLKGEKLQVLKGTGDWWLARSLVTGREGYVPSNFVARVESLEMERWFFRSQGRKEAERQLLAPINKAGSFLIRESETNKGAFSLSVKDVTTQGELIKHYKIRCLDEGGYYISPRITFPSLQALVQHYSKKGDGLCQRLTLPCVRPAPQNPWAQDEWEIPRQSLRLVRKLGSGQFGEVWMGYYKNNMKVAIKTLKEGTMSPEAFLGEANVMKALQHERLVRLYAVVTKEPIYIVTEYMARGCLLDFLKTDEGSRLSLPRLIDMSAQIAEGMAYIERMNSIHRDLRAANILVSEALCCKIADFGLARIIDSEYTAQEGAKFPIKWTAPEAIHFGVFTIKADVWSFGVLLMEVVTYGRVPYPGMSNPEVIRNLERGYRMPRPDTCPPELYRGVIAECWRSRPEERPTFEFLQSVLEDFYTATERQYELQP

SMILES	phosphorylation of Abl (Tyr412) and STAT5 (Tyr694) [1]	phosphorylation of Abl (Tyr412) and STAT5 (Tyr694) [2]	inhibition of Blk ([3]; 50 nM)	window between IC50 values against parental Ba/F3 cells and those expressing Bcr-Abl [4]	inhibition of proliferation of parental Ba/F3 cells ([4]; at concentrations below 1 μM)	inhibition of MUSK ([5]; 50 nM)	inhibition at 0.05 µM [6]	inhibition at 0.05 µM [7]	inhibition of TrkA ([8]; 50 nM)	number of kinases potently inhibited (>80% inhibition) [9]	inhibition at 0.05 µM ([3]; read-out: inhibition of Blk)	inhibition at 0.05 µM ([5]; read-out: inhibition of MUSK)	inhibition at 0.05 µM ([8]; read-out: inhibition of TrkA)
CC(C)n1nc(C#Cc2cccc(O)c2)c2c(N)ncnc21 [Compound 3, 3-((4-Amino-1-isopropyl-1H-pyrazolo[3,4-d]pyrimidin-3-yl)-ethynyl)phenol]	only partially inhibited	only partially inhibited											
CC(C)n1nc(C#Cc2cccc(NC(=O)c3cccc(C(F)(F)F)c3)c2)c2c(N)ncnc21 [Compound 15, N-(3-((4-Amino-1-isopropyl-1H-pyrazolo[3,4-d]pyrimidin-3-yl)-ethynyl)phenyl)-3-(trifluoromethyl)benzamide]	abolished	abolished	not significantly affected	over 100 fold	do not inhibit	not significantly affected	40 to 80%	40 to 80%	not significantly affected	9			
Cc1ccc(C(=O)Nc2ccc(CN3CCN(C)CC3)c(C(F)(F)F)c2)cc1C#Cc1cnc2cccnn12 [Ponatinib, reference compound]							> 80%	> 80%			> 80%	> 80%	> 80%
